Test results as given in patent US20250129328A1, “AN ISOLATED S. SALIVARIUS STRAIN AND ITS USE AS AN ANTIMICROBIAL PRODUCING PROBIOTIC” (priority 2021, published 2025).
Ends that are not written are not given here.

Columns and labels:
F. nucleatum DSM15643 = test: Well diffusion assay (WDA) of purified nisin peptides; format: cell-based, Fusobacterium nucleatum; set-up: dose or concentration left out as unconfirmed
L. bulgaricus DPC5383 = test: Well diffusion assay (WDA) of purified nisin peptides and CFS; format: cell-based, Lactobacillus delbrueckii ssp. bulgaricus; set-up: dose or concentration left out as unconfirmed; conditions: semi-pure nisin G and pure nisin A
Protocol: The culture was centrifuged at 7,871 g for 20 minutes and cells separated from the supernatant. The cell pellet was resuspended in 300 ml of 70% 2 propanol 0.1% TFA (IPA) and stirred at room temperature for 3-4 hours. The resulting suspension was centrifuged again, and the supernatant retained for purification of the antimicrobial. […] The IPA was removed by rotary evaporation and the sample applied to a 12 ml, 2 g Strata-E C18 SPE column pre-equilibrated (Phenomenex, Cheshire, UK) with methanol and water. The column was washed with 24 ml 30% ethanol and then 24 ml 70% 2-propanol 0.1% TFA. […] The IPA was removed from the C18 SPE IPA eluent by rotary evaporation (Buchi Labortechnik AG; Flawil, Switzerland) and the resulting sample applied to a semi prep Jupiter Proteo (10×250 mm, […], 90 Å) Reversed Phase HPLC column running a 30-50% acetonitrile 0.1% TFA gradient at 2.5 mL/min where buffer A was 0.1% TFA and buffer B was 100% acetonitrile 0.1% TFA. […] Bioactive fractions were pooled and lyophilized using a Genevac lyophiliser (Suffolk, UK).

Substance | Zone of inhibition (area of zone of inhibition minus area of well) (F. nucleatum DSM15643) [mm^2] | Antimicrobial activity, comparison of size of zones of inhibition (in words) (L. bulgaricus DPC5383)
nisin A (ITSISLCTPGCKTGALMGCNMKTATCHCSIHVSK; also: lantibiotic, modified residues and rings not given here; UniProt P13068 24-57, looked up) [prototypical broad spectrum lantibiotic, purified from nisinA®P (Handary) by reversed phase HPLC, reference compound] | 395.8 | 
nisin G | 37.7 | less than nisin A
